Results taken from publication PMC13064811, “The Role of Disulfide Bonds in the GluN1 Subunit in the Early Trafficking and Functional Properties of GluN1/GluN2 and GluN1/GluN3 NMDA Receptors” (The Journal of Neuroscience, 2026).

Experiments:
hGluN1-4a/hGluN2A = target: T1, hGluN1-4a/hGluN2A (Homo sapiens, UniProt Q05586+Q12879); assay type: cell-based
T1 construct: GluN1-4a (hGluN1-4a; NP_000823.4); GluN2A (hGluN2A; NP_001127879.1); expressed in transfected cells; host or cells: HEK293T

hGluN1-4a-C744Y/hGluN2A = target: T2, hGluN1-4a-C744Y/hGluN2A (Homo sapiens, UniProt Q05586+Q12879, C744Y); assay type: cell-based
T2 construct: GluN1-4a (hGluN1-4a; NP_000823.4); GluN2A (hGluN2A; NP_001127879.1); expressed in transfected cells; host or cells: HEK293T
T2 sequence (Q12879 23-1464, other chains not shown): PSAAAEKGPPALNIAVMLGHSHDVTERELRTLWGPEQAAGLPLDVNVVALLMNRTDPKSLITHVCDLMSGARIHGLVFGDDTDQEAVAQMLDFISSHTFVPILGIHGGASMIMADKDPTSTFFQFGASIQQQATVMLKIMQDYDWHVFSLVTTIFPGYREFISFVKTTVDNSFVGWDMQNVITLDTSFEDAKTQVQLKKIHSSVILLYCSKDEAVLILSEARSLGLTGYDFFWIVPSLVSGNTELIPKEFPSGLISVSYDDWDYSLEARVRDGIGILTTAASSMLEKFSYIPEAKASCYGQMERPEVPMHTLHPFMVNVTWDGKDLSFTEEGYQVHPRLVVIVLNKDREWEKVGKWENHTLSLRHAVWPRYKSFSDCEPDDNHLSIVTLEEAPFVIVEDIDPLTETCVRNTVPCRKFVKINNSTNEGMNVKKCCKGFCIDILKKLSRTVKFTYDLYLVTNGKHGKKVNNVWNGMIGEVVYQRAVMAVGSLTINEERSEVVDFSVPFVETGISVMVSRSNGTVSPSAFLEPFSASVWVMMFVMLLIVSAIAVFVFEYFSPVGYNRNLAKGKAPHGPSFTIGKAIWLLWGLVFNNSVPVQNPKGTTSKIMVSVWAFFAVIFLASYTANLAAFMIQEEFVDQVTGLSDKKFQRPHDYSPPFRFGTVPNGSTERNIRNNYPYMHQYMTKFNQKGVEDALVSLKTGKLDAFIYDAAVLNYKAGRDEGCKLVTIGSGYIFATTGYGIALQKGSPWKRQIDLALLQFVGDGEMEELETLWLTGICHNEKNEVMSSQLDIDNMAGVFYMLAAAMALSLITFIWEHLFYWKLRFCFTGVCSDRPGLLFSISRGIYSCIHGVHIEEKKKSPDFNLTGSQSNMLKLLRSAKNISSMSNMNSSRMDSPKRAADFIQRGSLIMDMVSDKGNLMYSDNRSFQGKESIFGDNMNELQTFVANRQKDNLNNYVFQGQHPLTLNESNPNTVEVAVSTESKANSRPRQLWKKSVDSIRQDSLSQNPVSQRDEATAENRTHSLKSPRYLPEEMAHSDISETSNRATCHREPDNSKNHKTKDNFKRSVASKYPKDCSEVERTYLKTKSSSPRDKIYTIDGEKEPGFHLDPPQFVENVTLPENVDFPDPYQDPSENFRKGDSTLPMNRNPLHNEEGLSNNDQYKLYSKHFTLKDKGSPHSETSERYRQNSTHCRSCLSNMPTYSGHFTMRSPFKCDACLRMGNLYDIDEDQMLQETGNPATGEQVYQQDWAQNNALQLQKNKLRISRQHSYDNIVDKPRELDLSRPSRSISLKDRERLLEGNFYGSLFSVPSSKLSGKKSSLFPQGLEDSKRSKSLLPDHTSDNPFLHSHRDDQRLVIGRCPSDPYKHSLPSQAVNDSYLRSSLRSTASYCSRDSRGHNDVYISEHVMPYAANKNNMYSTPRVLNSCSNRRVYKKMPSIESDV

[1] = system: GluN1-C79S-C308S/GluN2A receptors; conditions: cited from earlier work
hGluN1-4a-C744Y/hGluN2B = target: T3, hGluN1-4a-C744Y/hGluN2B (Homo sapiens, UniProt Q05586+Q13224, C744Y); assay type: cell-based
T3 construct: GluN1-4a (hGluN1-4a; NP_000823.4); GluN2B (hGluN2B; NP_000825.2); expressed in transfected cells; host or cells: HEK293T
T3 sequence (Q13224 27-1484, other chains not shown): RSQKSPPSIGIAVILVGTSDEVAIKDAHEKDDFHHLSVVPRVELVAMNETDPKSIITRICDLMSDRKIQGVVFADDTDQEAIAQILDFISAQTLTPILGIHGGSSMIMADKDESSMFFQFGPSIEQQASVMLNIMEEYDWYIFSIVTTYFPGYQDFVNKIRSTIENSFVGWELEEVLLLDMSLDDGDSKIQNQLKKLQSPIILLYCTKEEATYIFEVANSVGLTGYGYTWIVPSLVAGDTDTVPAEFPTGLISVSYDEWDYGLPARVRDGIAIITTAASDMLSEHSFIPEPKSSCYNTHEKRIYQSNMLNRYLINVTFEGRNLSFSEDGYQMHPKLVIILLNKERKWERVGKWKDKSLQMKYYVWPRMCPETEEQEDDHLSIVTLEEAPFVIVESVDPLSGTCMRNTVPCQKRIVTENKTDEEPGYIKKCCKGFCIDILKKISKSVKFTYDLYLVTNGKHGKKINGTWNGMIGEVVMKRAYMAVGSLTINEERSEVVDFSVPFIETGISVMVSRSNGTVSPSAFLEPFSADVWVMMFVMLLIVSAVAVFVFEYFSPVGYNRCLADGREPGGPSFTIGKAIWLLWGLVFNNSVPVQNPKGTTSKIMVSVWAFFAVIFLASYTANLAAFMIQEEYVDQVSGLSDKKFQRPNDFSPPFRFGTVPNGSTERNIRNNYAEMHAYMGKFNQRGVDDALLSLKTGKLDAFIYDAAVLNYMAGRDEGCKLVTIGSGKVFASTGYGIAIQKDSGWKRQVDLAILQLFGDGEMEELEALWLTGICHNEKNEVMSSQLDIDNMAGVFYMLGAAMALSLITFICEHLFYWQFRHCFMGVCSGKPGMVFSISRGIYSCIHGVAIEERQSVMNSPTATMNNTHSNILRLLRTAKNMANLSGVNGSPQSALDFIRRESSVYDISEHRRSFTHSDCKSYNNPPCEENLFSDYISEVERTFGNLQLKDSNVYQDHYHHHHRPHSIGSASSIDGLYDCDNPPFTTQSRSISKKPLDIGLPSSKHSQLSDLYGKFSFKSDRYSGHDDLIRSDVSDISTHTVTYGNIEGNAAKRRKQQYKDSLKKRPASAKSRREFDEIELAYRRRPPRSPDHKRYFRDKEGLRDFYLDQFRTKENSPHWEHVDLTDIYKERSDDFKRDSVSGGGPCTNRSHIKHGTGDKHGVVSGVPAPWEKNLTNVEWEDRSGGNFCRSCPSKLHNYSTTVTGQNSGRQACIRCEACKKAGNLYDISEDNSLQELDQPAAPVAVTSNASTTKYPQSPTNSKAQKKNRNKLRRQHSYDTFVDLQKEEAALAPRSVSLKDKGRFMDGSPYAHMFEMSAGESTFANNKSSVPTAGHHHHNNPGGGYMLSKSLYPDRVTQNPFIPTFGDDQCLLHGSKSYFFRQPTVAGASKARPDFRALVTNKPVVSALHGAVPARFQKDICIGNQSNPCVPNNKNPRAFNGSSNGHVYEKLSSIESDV

[2] = system: hippocampal neurons expressing YFP-hGluN1-1a or YFP-hGluN1-1a-C744Y subunits; experiment: NMDA-induced excitotoxicity assay; assay type: cell-based, rat; conditions: 10 µM memantine; death induced by 30 µM NMDA and 10 µM glycine
hGluN1-4a/hGluN2B = target: T4, hGluN1-4a/hGluN2B (Homo sapiens, UniProt Q05586+Q13224); set-up: method as in Konecny et al., 2024; conditions: ref Konecny et al., 2024, cited from earlier work
T4 construct: GluN1-4a (hGluN1-4a; NP_000823.4); GluN2B (hGluN2B; NP_000825.2); expressed in transfected cells; host or cells: HEK293T
T4 sequence (Q13224 27-1484, other chains not shown): as above

YFP-GluN1-1a/GluN2B = YFP-GluN1-1a/GluN2B (Rattus norvegicus, UniProt P35439+Q00960)
[3] = target: GluN1-4a-C436S-C455S/GluN2A (Rattus norvegicus, UniProt P35439+Q00959, C436S/C455S)
[4] = target: GluN1-4a-C744S-C798S/GluN2B (Rattus norvegicus, UniProt P35439+Q00960, C744S/C798S)
YFP-GluN1-1a/GluN2A = YFP-GluN1-1a/GluN2A (Rattus norvegicus, UniProt P35439+Q00959)
[5] = target: YFP-GluN1-1a-C744S-C798S/GluN2B (Rattus norvegicus, UniProt P35439+Q00960, C744S/C798S)
YFP-hGluN1-1a/hGluN2A = YFP-hGluN1-1a/hGluN2A (Homo sapiens, UniProt Q05586+Q12879); assay type: cell-based
[6] = target: GluN1-4a-C436S-C455S/GluN2B (Rattus norvegicus, UniProt P35439+Q00960, C436S/C455S)
[7] = target: YFP-GluN1-1a-C744S-C798S/GluN2A (Rattus norvegicus, UniProt P35439+Q00959, C744S/C798S)
[8] = target: YFP-GluN1-4a-C436S-C455S/GluN2B (Rattus norvegicus, UniProt P35439+Q00960, C436S/C455S)
[9] = target: GluN1-4a-C79S-C308S/GluN2A (Rattus norvegicus, UniProt P35439+Q00959, C308S/C79S)
[10] = target: GluN1-4a-C420S-C454S/GluN2A (Rattus norvegicus, UniProt P35439+Q00959, C420S/C454S)
[11] = target: GluN1-4a-C79S-C308S/GluN2B (Rattus norvegicus, UniProt P35439+Q00960, C308S/C79S)
[12] = target: YFP-GluN1-1a-C79S-C308S/GluN2A (Rattus norvegicus, UniProt P35439+Q00959, C308S/C79S)
GluN1-4a/GluN2A = GluN1-4a/GluN2A (Rattus norvegicus, UniProt P35439+Q00959)
[13] = target: YFP-hGluN1-1a-C744Y/hGluN2A (Homo sapiens, UniProt Q05586+Q12879, C744Y); assay type: cell-based
YFP-hGluN1-1a/hGluN2B = YFP-hGluN1-1a/hGluN2B (Homo sapiens, UniProt Q05586+Q13224); assay type: cell-based
[14] = target: YFP-GluN1-4a-C436S-C455S/GluN2A (Rattus norvegicus, UniProt P35439+Q00959, C436S/C455S)
[15] = target: YFP-GluN1-1a-C79S-C308S/GluN2B (Rattus norvegicus, UniProt P35439+Q00960, C308S/C79S)
GluN1-4a/GluN2B = GluN1-4a/GluN2B (Rattus norvegicus, UniProt P35439+Q00960)
[16] = target: YFP-GluN1-1a-C420S-C454S/GluN2B (Rattus norvegicus, UniProt P35439+Q00960, C420S/C454S)
[17] = target: GluN1-4a-C744S-C798S/GluN2A (Rattus norvegicus, UniProt P35439+Q00959, C744S/C798S)
[18] = target: YFP-GluN1-1a-C420S-C454S/GluN2A (Rattus norvegicus, UniProt P35439+Q00959, C420S/C454S)
[19] = target: YFP-hGluN1-1a-C744Y/hGluN2B (Homo sapiens, UniProt Q05586+Q13224, C744Y); assay type: cell-based
[20] = pretreatment with 4 mM DTT or 0.5 mM DTNB, each for 2 min
[21] = 1 mM L-glutamate and 100 µM glycine, −60 mV
[22] = offset of inhibition, 1 mM glutamate and 100 µM glycine
[23] = onset of inhibition, 1 mM glutamate and 100 µM glycine

**Q.** What does the source list for `O=C(O)c1cc(SSc2ccc([N+](=O)[O-])c(C(=O)O)c2)ccc1[N+](=O)[O-]` [DTNB, 5,5′-dithiobis-(2-nitrobenzoic acid)]?
**A.** effect on peak current amplitudes (redox sensitivity) (hGluN1-4a/hGluN2A; [20]): neither condition (DTT or DTNB) altered the peak current amplitudes; effect on peak current amplitudes (redox sensitivity) (hGluN1-4a-C744Y/hGluN2A; [20]): neither condition (DTT or DTNB) altered the peak current amplitudes

**Q.** Which “increase of the EC50 value for NMDA” value [1] does the source give for `CN[C@H](CC(=O)O)C(=O)O` [NMDA] here?
**A.** The value was ~25%.

**Q.** Which “h (Hill coefficient), memantine” value (hGluN1-4a-C744Y/hGluN2B; [21]) does the source give for `CC12CC3CC(C)(C1)CC(N)(C3)C2` [memantine] here?
**A.** Its value is 0.86 ± 0.05.

**Q.** And the “τoff 1 μM memantine” value (hGluN1-4a-C744Y/hGluN2B; [22])?
**A.** The value was 811.87 ± 56.87 ms.

**Q.** What about the “τon 1 μM memantine” value (hGluN1-4a-C744Y/hGluN2B; [23]) of the same molecule?
**A.** The value was 519.40 ± 26.19 ms.

**Q.** What about the neuronal death [2] of the same molecule?
**A.** The neuronal death was “reduced neuronal death”.

**Q.** And the “h (Hill coefficient), memantine” value (hGluN1-4a/hGluN2A; [21])?
**A.** Its value is 1.04 ± 0.06.

**Q.** What about the “τoff 1 μM memantine” value (hGluN1-4a/hGluN2A; [22]) of the same molecule?
**A.** The value was 510.08 ± 40.38 ms.

**Q.** And the “τon 1 μM memantine” value (hGluN1-4a/hGluN2A; [23])?
**A.** Its value is 440.47 ± 39.77 ms.

**Q.** And the “h (Hill coefficient), memantine” value (hGluN1-4a-C744Y/hGluN2A; [21])?
**A.** Its value is 0.94 ± 0.06.

**Q.** What about the “τoff 1 μM memantine” value (hGluN1-4a-C744Y/hGluN2A; [22]) of the same molecule?
**A.** Its value is 458.37 ± 83.04 ms.

**Q.** And the “τon 1 μM memantine” value (hGluN1-4a-C744Y/hGluN2A; [23])?
**A.** Its value is 292.14 ± 24.73 ms.

**Q.** What about the “h (Hill coefficient), memantine” value (hGluN1-4a/hGluN2B; [21]) of the same molecule?
**A.** Its value is 1.04 ± 0.03.

**Q.** And the “τoff 1 μM memantine” value (hGluN1-4a/hGluN2B; [22])?
**A.** The value was 758.93 ± 49.66 ms.

**Q.** And the “τon 1 μM memantine” value (hGluN1-4a/hGluN2B; [23])?
**A.** Its value is 708.99 ± 49.40 ms.

**Q.** Which τon-MK-801 (YFP-GluN1-1a/GluN2B) does the source give for `C[C@]12N[C@H](Cc3ccccc31)c1ccccc12` [MK-801, Dizocilpine] here?
**A.** The τon-MK-801 was 2,053.21 ± 117.07 ms.

**Q.** What about the τon-MK-801 [3] of the same molecule?
**A.** The τon-MK-801 was 910.61 ± 85.39 ms.

**Q.** And the τon-MK-801 [4]?
**A.** The τon-MK-801 was 486.89 ± 100.90 ms.

**Q.** What about the τon-MK-801 (YFP-GluN1-1a/GluN2A) of the same molecule?
**A.** Its τon-MK-801 is 1,178.37 ± 93.82 ms.

**Q.** What about the τon-MK-801 [5] of the same molecule?
**A.** The τon-MK-801 was 765.01 ± 74.13 ms.

**Q.** What about the τon-MK-801 (YFP-hGluN1-1a/hGluN2A) of the same molecule?
**A.** Its τon-MK-801 is 789.63 ± 58.54 ms.

**Q.** And the τon-MK-801 [6]?
**A.** The τon-MK-801 was 1,988.70 ± 356.79 ms.

**Q.** What about the τon-MK-801 [7] of the same molecule?
**A.** Its τon-MK-801 is 345.28 ± 25.68 ms.

**Q.** What about the τon-MK-801 [8] of the same molecule?
**A.** The τon-MK-801 was 2,040.87 ± 282.26 ms.

**Q.** What about the τon-MK-801 [9] of the same molecule?
**A.** Its τon-MK-801 is 1,038.07 ± 140.54 ms.

**Q.** What about the τon-MK-801 [10] of the same molecule?
**A.** Its τon-MK-801 is 987.68 ± 105.05 ms.

**Q.** What about the τon-MK-801 [11] of the same molecule?
**A.** The τon-MK-801 was 3,355.73 ± 243.72 ms.

**Q.** What about the τon-MK-801 [12] of the same molecule?
**A.** The τon-MK-801 was 1,109.06 ± 65.15 ms.

**Q.** What about the τon-MK-801 (GluN1-4a/GluN2A) of the same molecule?
**A.** The τon-MK-801 was 981.54 ± 19.11 ms.

**Q.** And the τon-MK-801 [13]?
**A.** Its τon-MK-801 is 240.25 ± 29.53 ms.

**Q.** What about the τon-MK-801 (YFP-hGluN1-1a/hGluN2B) of the same molecule?
**A.** Its τon-MK-801 is 2,008.90 ± 224.76 ms.

**Q.** And the τon-MK-801 [14]?
**A.** Its τon-MK-801 is 937.85 ± 78.10 ms.

**Q.** And the τon-MK-801 [15]?
**A.** Its τon-MK-801 is 3,010.09 ± 193.67 ms.

**Q.** What about the τon-MK-801 (GluN1-4a/GluN2B) of the same molecule?
**A.** Its τon-MK-801 is 2,307.47 ± 151.45 ms.

**Q.** What about the τon-MK-801 [16] of the same molecule?
**A.** The τon-MK-801 was 2,612.49 ± 167.91 ms.

**Q.** And the τon-MK-801 [17]?
**A.** Its τon-MK-801 is 278.04 ± 55.79 ms.

**Q.** What about the τon-MK-801 [18] of the same molecule?
**A.** The τon-MK-801 was 1,045.30 ± 112.94 ms.

**Q.** What about the τon-MK-801 [19] of the same molecule?
**A.** The τon-MK-801 was 846.35 ± 52.08 ms.
